What is called EC50 is the concentration at which the effect is half-maximal. A high value points to a need for much substance.

The first assay deals with T1, human FXR (Homo sapiens, UniProt Q96RI1).
T1 construct: expressed in transfected cells; host or cells: HEK293 cells stably carrying a 5xGal4-response-element firefly luciferase reporter, transiently transfected with pcDNA3.1-Gal4-FXR
T1 sequence (Q96RI1 262-486 limits assumed): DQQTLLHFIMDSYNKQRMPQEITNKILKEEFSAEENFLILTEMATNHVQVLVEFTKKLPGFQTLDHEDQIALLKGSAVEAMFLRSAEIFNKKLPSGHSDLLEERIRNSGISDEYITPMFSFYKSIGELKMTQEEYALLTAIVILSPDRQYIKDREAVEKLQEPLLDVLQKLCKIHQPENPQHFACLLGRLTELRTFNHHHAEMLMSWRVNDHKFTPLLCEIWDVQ
Briefly: transient human FXR/Gal4-luciferase reporter assay. Type of assay: cell-based. The conditions noted are these: Gal4-hFXR fusion construct, luciferase reporter HEK293 cells; response relative to 8 μM GW-4064. As to the method:
The exemplified compounds of the present invention were tested in the transient human FXR/Gal4-luciferase reporter assay, and assay results were reported in Table 1 and Examples 1 to 3 together with other analytical data.
A Gal4-hFXR fusion construct reporter system was used as the primary assay to characterize compound activity. A construct including 5 copies of the Gal4 promoter response element upstream of a firefly luciferase reporter cDNA was stably expressed in HEK293 cells. This reporter cell line was maintained in Dulbecco's Modified Eagle's medium (DMEM; Gibco) supplemented with 1% penicillin-streptomycin (P/S) solution, 500 μg/mL Zeocin and 10% charcoal/dextran-treated fetal bovine serum (cs-FBS) at 37° C. in a humidified 5% CO2 atmosphere. Another plasmid was constructed in which the human cytomegalovirus promoter in the pcDNA3.1 vector directs the expression of the cDNA encoding a fusion protein comprised of the DNA binding domain from the Gal4 transcription factor fused to the ligand binding domain from human FXR.
The day prior to transfection, the reporter cells in culture are detached from the plate with trypsin and plated into a T75 flask at a sufficient density to achieve approximately 90% confluence the next morning. The transfection reagents are prepared by separately diluting 25 μg of the pcDNA3.1-Gal4-FXR plasmid into 1.87 mL of Opti-MEM (Thermo-Fisher), and 40 μL of Lipofectamine 2000 (Thermo-Fisher) into 1.87 mL of Opti-MEM, and then adding the diluted DNA solution into the diluted Lipofectamine 2000 solution and incubating at room temperature for 15-20 minutes. The mixture is further diluted with 10 mL of a solution comprised of DMEM, 10% cs-FBS, and 1% P/S immediately prior to transferring to the cells. The maintenance culture media is aspirated from the cells and the final transfection mixture is added before the cells are incubated overnight at 37° C. in a humidified 5% CO2 atmosphere. This protocol can be scaled up, and the transiently transfected cells can be cryopreserved in an assay-ready format.
For compound testing, 100 nL of the compounds (serial dilutions in DMSO) are dispensed with an Echo acoustic dispenser (Labcyte) into the wells of a Corning/Costar clear bottom 384-well white plate. The transfected cells are harvested, counted, and diluted such that 10-25,000 cells in 25 μL are plated into each well of the 384-well compound assay plate. The compound-treated cells are incubated overnight at 37° C. in a humidified 5% CO2 atmosphere. The next morning 25 μL of Steady-Glo (Promega) are added to each well of the plate, the mixture is incubated for 15 min. with shaking, and luminescence is measured on an Envision (Perkin Elmer) plate reader. Background counts from cells treated with DMSO alone are subtracted from all raw counts, and the corrected values are converted to a percentage of the control response attained with 8 μM GW-4064.
With `COc1cc(C(=O)O)nc2ccc(N3CC4(CC(/C=C/c5c(-c6ccncc6Cl)noc5C5CC5)C4)C3)cc12` [Example 2, (E)-6-(6-(2-(3-(3-chloropyridin-4-yl)-5-cyclopropylisoxazol-4-yl)vinyl)-2-azaspiro[3.3]heptan-2-yl)-4-methoxyquinoline-2-carboxylic acid], the EC50 turned out to be 0.501 µM. This counts as sub-micromolar. Same read-out and setting: the result for `COc1cc(C(=O)O)nc2ccc(N3CC4(CC(/C=C/c5c(-c6c(Cl)cncc6Cl)noc5C5CC5)C4)C3)cc12` [Example 1, (E)-6-(6-(2-(5-Cyclopropyl-3-(3,5-dichloropyridin-4-yl)isoxazol-4-yl)vinyl)-2-azaspiro[3.3]heptan-2-yl)-4-methoxyquinoline-2-carboxylic acid] reads 0.155 µM.

Staying with this assay, now noted: Gal4-hFXR fusion construct, luciferase reporter HEK293 cells; response relative to 8 μM GW-4064; unit inferred.
On to `O=C(O)c1cc(C(F)(F)F)c2cc(OCC3CC4(CC(/C=C/c5c(-c6ccccc6C(F)(F)F)noc5C5CC5)C4)C3)ccc2n1` (centres unmarked) [Example 52], for which the EC50 amounted to 0.082 µM. This lies in the double-digit nanomolar range.

On to `O=C(O)c1cc(C(F)(F)F)c2cc(N3CC4(CC(/C=C/c5c(-c6c(Cl)cccc6Cl)noc5C5CC5)C4)C3)ccc2n1` [Example 4], for which the EC50 came out at 0.06 µM. Same read-out and setting: the result for `Cn1nc(C(=O)O)cc1OCC1CC2(CC(/C=C/c3c(-c4c(Cl)cncc4Cl)noc3C3CC3)C2)C1` (centres unmarked) [Example 45] reads 0.024 µM. On the same count and under the same terms, the result for `NC(=O)c1cccc(OCC2CC3(CC(/C=C/c4c(-c5ccccc5C(F)(F)F)noc4C4CC4)C3)C2)c1` (centres unmarked) [Example 48] reads 0.214 µM; that for `O=C(O)c1cc2ccc(OCC3CC4(CC(/C=C/c5c(-c6ccccc6C(F)(F)F)noc5C5CC5)C4)C3)cc2nn1` (centres unmarked) [Example 54], 0.122 µM. As to `O=C(O)c1ncc(OCC2CC3(CC(/C=C/c4c(-c5ccccc5C(F)(F)F)noc4C4CC4)C3)C2)cc1OC1CCC1` (centres unmarked) [Example 62], the EC50 was 0.036 µM. Still for that read-out and setting: as for `COc1nc(C(=O)O)cc2ccc(N3CC4(CC(/C=C/c5c(-c6ccccc6C(F)(F)F)noc5C5CC5)C4)C3)cc12` [Example 19], the figure is 0.169 µM; as for `O=C(O)c1cc(OC2COC2)c2cc(N3CC4(CC(/C=C/c5c(-c6cccnc6C(F)(F)F)noc5C5CC5)C4)C3)ccc2n1` [Example 23], 0.165 µM; as for `O=C(O)c1cc(OC2COC2)c2cc(N3CC4(CC(/C=C/c5c(-c6c(Cl)cncc6Cl)noc5C5CC5)C4)C3)ccc2n1` [Example 24], 0.114 µM. For the molecule `O=C(O)c1ncc(OCC2CC3(CC(/C=C/c4c(-c5ccccc5C(F)(F)F)noc4C4CC4)C3)C2)cc1C(F)(F)F` (centres unmarked) [Example 56], the EC50 was 0.095 µM. The EC50 values of the last two molecules are within 1.5-fold of each other. On the same count and under the same terms, the result for `O=C(O)c1cc(C(F)(F)F)c2cc(N3CC4(CC(/C=C/c5c(-c6ccncc6Cl)noc5C5CC5)C4)C3)ccc2n1` [Example 6] reads 0.14 µM; that for `CC(C)Oc1cc(C(=O)O)nc2ccc(N3CC4(CC(/C=C/c5c(-c6ncccc6C(F)(F)F)noc5C5CC5)C4)C3)cc12` [Example 15], 0.085 µM. Still for that read-out and setting: as for `O=C(O)c1ccc(N2CC3(CC(/C=C/c4c(-c5c(Cl)cccc5Cl)noc4C4CC4)C3)C2)cc1` [Example 5], the figure is 0.13 µM. On the same count and under the same terms, the result for `O=C(O)c1ncc(OCC2CC3(CC(/C=C/c4c(-c5c(Cl)cncc5Cl)noc4C4CC4)C3)C2)cc1C(F)(F)F` (centres unmarked) [Example 55] reads 0.05 µM; that for `O=C(O)c1cc(O[C@@H]2CCOC2)c2cc(N3CC4(CC(/C=C/c5c(-c6cccnc6C(F)(F)F)noc5C5CC5)C4)C3)ccc2n1` [Example 26], 0.231 µM. In the case of `O=C(O)c1cc(C(F)(F)F)c2cc(N3CC4(CC(/C=C/c5c(-c6ccccc6C(F)(F)F)noc5C5CC5)C4)C3)ccc2n1` [Example 8], the response was half-maximal at 0.137 µM (EC50). This EC50 is about 1.7-fold lower than that of the molecule before. The same measure, in the same setting: the result for `CN1CCN(c2cc(C(=O)O)nc3ccc(OCC4CC5(CC(/C=C/c6c(-c7ccccc7C(F)(F)F)noc6C6CC6)C5)C4)cc23)CC1` (centres unmarked) [Example 67] reads 0.302 µM; that for `O=C(O)c1cc(OCC2CC3(CC(/C=C/c4c(-c5c(Cl)cncc5Cl)noc4C4CC4)C3)C2)n(C2CC2)n1` (centres unmarked) [Example 60], 0.034 µM; that for `NC(=O)c1ncc(OCC2CC3(CC(/C=C/c4c(-c5ccccc5C(F)(F)F)noc4C4CC4)C3)C2)cc1OC1CC1` (centres unmarked) [Example 64], 0.667 µM. Still for that read-out and setting: as for `CC(C)Oc1cc(C(=O)O)nc2ccc(N3CC4(CC(/C=C/c5c(-c6ccccc6C(F)(F)F)noc5C5CC5)C4)C3)cc12` [Example 12], the figure is 0.029 µM; as for `Cc1cc(C(=O)O)nc2sc(N3CC4(CC(/C=C/c5c(-c6ccccc6C(F)(F)F)noc5C5CC5)C4)C3)nc12` [Example 9], 0.268 µM. Same read-out and setting: the result for `Cc1nc(C(=O)O)cc2ccc(N3CC4(CC(/C=C/c5c(-c6c(Cl)cncc6Cl)noc5C5CC5)C4)C3)cc12` [Example 13] reads 0.429 µM; that for `Cc1cc(OCC2CC3(CC(/C=C/c4c(-c5ccccc5C(F)(F)F)noc4C4CC4)C3)C2)cnc1C(=O)O` (centres unmarked) [Example 50], 0.142 µM. Regarding `Cc1c(OCC2CC3(CC(/C=C/c4c(-c5c(Cl)cncc5Cl)noc4C4CC4)C3)C2)nn(C(C)C)c1C(=O)O` (centres unmarked) [Example 59], the midpoint of the response, the EC50, lay at 0.085 µM. Against the preceding molecule, the EC50 is about 1.7-fold lower. Still for that read-out and setting: the result for `CC(C)Oc1cc(C(=O)O)nc2ccc(N3CC4(CC(/C=C/c5c(-c6c(Cl)cncc6Cl)noc5C5CC5)C4)C3)cc12` [Example 11] reads 0.079 µM; that for `O=C(O)c1cc(OC2COC2)c2cc(N3CC4(CC(/C=C/c5c(-c6ccccc6C(F)(F)F)noc5C5CC5)C4)C3)ccc2n1` [Example 18], 0.052 µM. Still for that read-out and setting: as for `CN1CCN(c2cc(C(=O)O)nc3ccc(OCC4CC5(CC(/C=C/c6c(-c7c(Cl)cncc7Cl)noc6C6CC6)C5)C4)cc23)CC1` (centres unmarked) [Example 66], the figure is 0.188 µM; as for `COc1cc(C(=O)O)nc2ccc(N3CC4(CC(/C=C/c5c(-c6cccnc6C(F)(F)F)noc5C5CC5)C4)C3)cc12` [Example 22], 0.111 µM; as for `CCOc1cc(C(=O)O)nc2ccc(N3CC4(CC(/C=C/c5c(-c6cccnc6C(F)(F)F)noc5C5CC5)C4)C3)cc12` [Example 25], 0.153 µM. Same read-out and setting: the result for `O=C(O)c1cc(O[C@H]2CCOC2)c2cc(N3CC4(CC(/C=C/c5c(-c6ccccc6C(F)(F)F)noc5C5CC5)C4)C3)ccc2n1` [Example 21] reads 0.018 µM. For the molecule `O=C(O)c1cc(O[C@@H]2CCOC2)c2cc(N3CC4(CC(/C=C/c5c(-c6ccccc6C(F)(F)F)noc5C5CC5)C4)C3)ccc2n1` [Example 20], the midpoint of the response, the EC50, lay at 0.033 µM.

In turn, `Cc1cc(OCC2CC3(CC(/C=C/c4c(-c5ccccc5C(F)(F)F)noc4C4CC4)C3)C2)cnc1C(=O)O` (single isomer, unassigned) [Example 31, (E)-5-((6-(2-(5-Cyclopropyl-3-(2-(trifluoromethyl)phenyl)isoxazol-4-yl)vinyl)spiro [3.3]heptan-2-yl)methoxy)-3-methylpicolinic acid] displayed an EC50 of 0.139 µM. Still for that read-out and setting: the result for `O=C(O)c1cc(F)c2nc(N3CC4(CC(/C=C/c5c(-c6c(Cl)cncc6Cl)noc5C5CC5)C4)C3)sc2c1` [Example 10] reads 0.667 µM; that for `O=C(O)c1ccc2cc(OCC3CC4(CC(/C=C/c5c(-c6ccccc6C(F)(F)F)noc5C5CC5)C4)C3)ccc2n1` (centres unmarked) [Example 53], 0.187 µM. On the same count and under the same terms, the result for `NC(=O)c1ncc(OCC2CC3(CC(/C=C/c4c(-c5c(Cl)cncc5Cl)noc4C4CC4)C3)C2)cc1OC1CCC1` (centres unmarked) [Example 65] reads 0.153 µM; that for `NC(=O)c1ncc(OCC2CC3(CC(/C=C/c4c(-c5ccccc5C(F)(F)F)noc4C4CC4)C3)C2)cc1OC1CCC1` (centres unmarked) [Example 63], 0.393 µM. Same read-out and setting: as for `CCc1nc(C(=O)O)cc2ccc(N3CC4(CC(/C=C/c5c(-c6c(Cl)cncc6Cl)noc5C5CC5)C4)C3)cc12` [Example 14], the figure is 0.302 µM; as for `O=C(O)c1cccc(OCC2CC3(CC(/C=C/c4c(-c5c(Cl)cncc5Cl)noc4C4CC4)C3)C2)c1` (centres unmarked) [Example 47], 0.04 µM.

As to `Cn1nc(C(=O)O)cc1OCC1CC2(CC(/C=C/c3c(-c4ccccc4C(F)(F)F)noc3C3CC3)C2)C1` (centres unmarked) [Example 51], the response was half-maximal at 0.099 µM (EC50). Against the preceding molecule, the EC50 is about 2.5-fold higher.

The values are drawn from patent publication US11286252B2, “Alkene spirocyclic compounds as farnesoid X receptor modulators” (BRISTOL-MYERS SQUIBB COMPANY, priority 2017, dated 2022).
